In patent US11098040B2, “Compounds and methods of use” (Ferro Therapeutics, Inc., priority 2018, dated 2021):

Test system: KP4
Assay: Cell viability assay (CellTiter Glo), pancreatic ductal adenocarcinoma KP4
Assay type: cell-based, human
Settings: Homo sapiens, KP-4, 96 h, pancreatic cancer cell line KP4, 96 hours, CellTiter Glo; read-out: IC50 μM KP4
Protocol: (§1) Cell viability assay was performed to assess the potency of the compounds in human cancer cell lines KP4 (pancreatic ductal adenocarcinoma), MiaPaCa-2 (pancreatic carcinoma), AsPC-1 (pancreatic adenocarcinoma, ascites), 143B (osteosarcoma), and SJSA-1 (osteosarcoma). Selected compounds were also assayed in a human breast epithelial cell line MCF-10A, a nontumorigenic cell line as a control to assess differential activity. Cells at a density of 500-5,000 cells/well were seeded in 96-well plates and incubated at 37° C. overnight. A series of 9 different concentrations of compound stocks (500×) were created by 3-fold serial dilution in DMSO. These compounds were further diluted in culture media and then added to cells so that the final DMSO concentration was equal to 0.25% or less. After 96 hours of incubation, 50 μL of CellTiter Glo reagent (Promega) was added to each well and luminescence was measured after 10 minutes using EnVision (PerkinElmer). Compounds titrated from top concentration of up to 30 μM. The select compounds were tested initially from 30 μM as the top concentration in duplicates (range of 4.6 nM-30 μM). […] Luminescence from cells treated with DMSO alone was set as Max and % of inhibition was calculated as follows: Inhibition %=(Max-Sample value)/Max*100. Data was analyzed using XL-fit software (ID Business Solutions Ltd.). IC50, relative IC50, or % of top inhibition was calculated.
as §1, with “in” for “in human”, “line” for “lines”, “adenocarcinoma).” for “adenocarcinoma), MiaPaCa-2 (pancreatic carcinoma), AsPC-1 (pancreatic adenocarcinoma, ascites), 143B (osteosarcoma), and SJSA-1 (osteosarcoma). Selected compounds were also assayed in a human breast epithelial cell line MCF-10A, a nontumorigenic cell line as a control to assess differential activity.”, “1,000-10,000” for “500-5,000”, “All” for “Compounds titrated from top concentration of up to 30 μM. The select”
(§2) The results of the assay on stability in blood and IC50 values for pancreatic cancer cell line KP4 are given below in Table 24.

For `COC(=O)[C@H]1Cc2c([nH]c3ccccc23)[C@H](c2ccc(C(=O)NC(C(=O)O)C(C)(C)C)cc2)N1C(=O)CCl` (single isomer, unassigned) [Compound 10], which IC50 is on record?
The IC50 was 0.5 to 1 µM.

Which IC50 does the source give for `C#CCOC(=O)c1ccc([C@@H]2c3[nH]c4ccccc4c3C[C@H](C(=O)OC)N2C(=O)CCl)cc1` [BXa] here?
Its IC50 is 0.01 to 0.1 µM.

Which IC50 does the source give for `COC(=O)[C@H]1Cc2c([nH]c3ccccc23)[C@H](c2ccc(C(=O)OC(C)(C)C)cc2)N1C(=O)CCl` [Compound 1] here?
Its IC50 is less than 0.01 µM.

Which IC50 does the source give for `COC(=O)c1ccc([C@H]2c3[nH]c4ccccc4c3C[C@H](C(=O)OC(C)(C)C)N2C(=O)CCl)cc1` [Compound 2] here?
Its IC50 is 0.01 to 0.1 µM.

With `COC(=O)c1ccc([C@H]2c3[nH]c4ccccc4c3C[C@H](C(=O)O)N2C(=O)CCl)cc1` [Compound 3] as the compound, how does the IC50 read?
Its IC50 is greater than 1 µM.

Test system: not listed separately
Assay: Whole blood stability, mouse
Assay type: in vitro ADME
Settings: 0 min
Text: as §2

Which “Whole Blood Stability % Remaining at 37° C. Mouse” value does the source give for `COC(=O)[C@H]1Cc2c([nH]c3ccccc23)[C@H](c2ccc(C(=O)NC(C(=O)O)C(C)(C)C)cc2)N1C(=O)CCl` (single isomer, unassigned) [Compound 10] here?
Its value is 100.0%.

With `C#CCOC(=O)c1ccc([C@@H]2c3[nH]c4ccccc4c3C[C@H](C(=O)OC)N2C(=O)CCl)cc1` [BXa] as the compound, how does the “Whole Blood Stability % Remaining at 37° C. Mouse” value read?
The value was 100.0%.

Which “Whole Blood Stability % Remaining at 37° C. Mouse” value does the source give for `COC(=O)[C@H]1Cc2c([nH]c3ccccc23)[C@H](c2ccc(C(=O)OC(C)(C)C)cc2)N1C(=O)CCl` [Compound 1] here?
Its value is 100.0%.

With `COC(=O)c1ccc([C@H]2c3[nH]c4ccccc4c3C[C@H](C(=O)OC(C)(C)C)N2C(=O)CCl)cc1` [Compound 2] as the compound, how does the “Whole Blood Stability % Remaining at 37° C. Mouse” value read?
The value was 100.0%.

With `COC(=O)c1ccc([C@H]2c3[nH]c4ccccc4c3C[C@H](C(=O)O)N2C(=O)CCl)cc1` [Compound 3] as the compound, how does the “Whole Blood Stability % Remaining at 37° C. Mouse” value read?
The value was 100%.

Same assay, conditions: 30 min

For `COC(=O)[C@H]1Cc2c([nH]c3ccccc23)[C@H](c2ccc(C(=O)NC(C(=O)O)C(C)(C)C)cc2)N1C(=O)CCl` (single isomer, unassigned) [Compound 10], which “Whole Blood Stability % Remaining at 37° C. Mouse” value is on record?
Its value is 82.2%.

For `C#CCOC(=O)c1ccc([C@@H]2c3[nH]c4ccccc4c3C[C@H](C(=O)OC)N2C(=O)CCl)cc1` [BXa], which “Whole Blood Stability % Remaining at 37° C. Mouse” value is on record?
Its value is 0.0%.

For `COC(=O)[C@H]1Cc2c([nH]c3ccccc23)[C@H](c2ccc(C(=O)OC(C)(C)C)cc2)N1C(=O)CCl` [Compound 1], which “Whole Blood Stability % Remaining at 37° C. Mouse” value is on record?
The value was 59.6%.

For `COC(=O)c1ccc([C@H]2c3[nH]c4ccccc4c3C[C@H](C(=O)OC(C)(C)C)N2C(=O)CCl)cc1` [Compound 2], which “Whole Blood Stability % Remaining at 37° C. Mouse” value is on record?
The value was 0.1%.

For `COC(=O)c1ccc([C@H]2c3[nH]c4ccccc4c3C[C@H](C(=O)O)N2C(=O)CCl)cc1` [Compound 3], which “Whole Blood Stability % Remaining at 37° C. Mouse” value is on record?
Its value is 51.3%.

Same assay, conditions: 60 min

For `COC(=O)[C@H]1Cc2c([nH]c3ccccc23)[C@H](c2ccc(C(=O)NC(C(=O)O)C(C)(C)C)cc2)N1C(=O)CCl` (single isomer, unassigned) [Compound 10], which “Whole Blood Stability % Remaining at 37° C. Mouse” value is on record?
Its value is 65.0%.

Which “Whole Blood Stability % Remaining at 37° C. Mouse” value does the source give for `C#CCOC(=O)c1ccc([C@@H]2c3[nH]c4ccccc4c3C[C@H](C(=O)OC)N2C(=O)CCl)cc1` [BXa] here?
The value was 0.0%.

For `COC(=O)[C@H]1Cc2c([nH]c3ccccc23)[C@H](c2ccc(C(=O)OC(C)(C)C)cc2)N1C(=O)CCl` [Compound 1], which “Whole Blood Stability % Remaining at 37° C. Mouse” value is on record?
Its value is 46.6%.

With `COC(=O)c1ccc([C@H]2c3[nH]c4ccccc4c3C[C@H](C(=O)OC(C)(C)C)N2C(=O)CCl)cc1` [Compound 2] as the compound, how does the “Whole Blood Stability % Remaining at 37° C. Mouse” value read?
Its value is 0.1%.

For `COC(=O)c1ccc([C@H]2c3[nH]c4ccccc4c3C[C@H](C(=O)O)N2C(=O)CCl)cc1` [Compound 3], which “Whole Blood Stability % Remaining at 37° C. Mouse” value is on record?
The value was 23.6%.

Test system: not listed separately
Assay: Whole blood stability, human
Assay type: in vitro ADME
Settings: 0 min
Text: as §2

For `COC(=O)[C@H]1Cc2c([nH]c3ccccc23)[C@H](c2ccc(C(=O)NC(C(=O)O)C(C)(C)C)cc2)N1C(=O)CCl` (single isomer, unassigned) [Compound 10], which “Whole Blood Stability % Remaining at 37° C. Human” value is on record?
The value was 100.0%.

With `C#CCOC(=O)c1ccc([C@@H]2c3[nH]c4ccccc4c3C[C@H](C(=O)OC)N2C(=O)CCl)cc1` [BXa] as the compound, how does the “Whole Blood Stability % Remaining at 37° C. Human” value read?
Its value is 100.0%.

With `COC(=O)[C@H]1Cc2c([nH]c3ccccc23)[C@H](c2ccc(C(=O)OC(C)(C)C)cc2)N1C(=O)CCl` [Compound 1] as the compound, how does the “Whole Blood Stability % Remaining at 37° C. Human” value read?
Its value is 100.0%.

For `COC(=O)c1ccc([C@H]2c3[nH]c4ccccc4c3C[C@H](C(=O)OC(C)(C)C)N2C(=O)CCl)cc1` [Compound 2], which “Whole Blood Stability % Remaining at 37° C. Human” value is on record?
The value was 100.0%.

Which “Whole Blood Stability % Remaining at 37° C. Human” value does the source give for `COC(=O)c1ccc([C@H]2c3[nH]c4ccccc4c3C[C@H](C(=O)O)N2C(=O)CCl)cc1` [Compound 3] here?
The value was 100%.

Same assay, conditions: 30 min

For `COC(=O)[C@H]1Cc2c([nH]c3ccccc23)[C@H](c2ccc(C(=O)NC(C(=O)O)C(C)(C)C)cc2)N1C(=O)CCl` (single isomer, unassigned) [Compound 10], which “Whole Blood Stability % Remaining at 37° C. Human” value is on record?
Its value is 84.0%.

With `C#CCOC(=O)c1ccc([C@@H]2c3[nH]c4ccccc4c3C[C@H](C(=O)OC)N2C(=O)CCl)cc1` [BXa] as the compound, how does the “Whole Blood Stability % Remaining at 37° C. Human” value read?
The value was 95.7%.

For `COC(=O)[C@H]1Cc2c([nH]c3ccccc23)[C@H](c2ccc(C(=O)OC(C)(C)C)cc2)N1C(=O)CCl` [Compound 1], which “Whole Blood Stability % Remaining at 37° C. Human” value is on record?
Its value is 60.5%.

With `COC(=O)c1ccc([C@H]2c3[nH]c4ccccc4c3C[C@H](C(=O)OC(C)(C)C)N2C(=O)CCl)cc1` [Compound 2] as the compound, how does the “Whole Blood Stability % Remaining at 37° C. Human” value read?
The value was 58.5%.

With `COC(=O)c1ccc([C@H]2c3[nH]c4ccccc4c3C[C@H](C(=O)O)N2C(=O)CCl)cc1` [Compound 3] as the compound, how does the “Whole Blood Stability % Remaining at 37° C. Human” value read?
Its value is 43.0%.

Same assay, conditions: 60 min

With `COC(=O)[C@H]1Cc2c([nH]c3ccccc23)[C@H](c2ccc(C(=O)NC(C(=O)O)C(C)(C)C)cc2)N1C(=O)CCl` (single isomer, unassigned) [Compound 10] as the compound, how does the “Whole Blood Stability % Remaining at 37° C. Human” value read?
Its value is 54.3%.

With `C#CCOC(=O)c1ccc([C@@H]2c3[nH]c4ccccc4c3C[C@H](C(=O)OC)N2C(=O)CCl)cc1` [BXa] as the compound, how does the “Whole Blood Stability % Remaining at 37° C. Human” value read?
The value was 46.8%.

Which “Whole Blood Stability % Remaining at 37° C. Human” value does the source give for `COC(=O)[C@H]1Cc2c([nH]c3ccccc23)[C@H](c2ccc(C(=O)OC(C)(C)C)cc2)N1C(=O)CCl` [Compound 1] here?
Its value is 43.0%.

For `COC(=O)c1ccc([C@H]2c3[nH]c4ccccc4c3C[C@H](C(=O)OC(C)(C)C)N2C(=O)CCl)cc1` [Compound 2], which “Whole Blood Stability % Remaining at 37° C. Human” value is on record?
Its value is 39.4%.

With `COC(=O)c1ccc([C@H]2c3[nH]c4ccccc4c3C[C@H](C(=O)O)N2C(=O)CCl)cc1` [Compound 3] as the compound, how does the “Whole Blood Stability % Remaining at 37° C. Human” value read?
Its value is 29.4%.
